Measurements from patent US6737383B1, “Herbicidal oxadiazolidines” (priority 1999, dated 2004).

Assays:
sugar beet = assay: Test B pre/postemergence sugar beet; type: in vivo, Beta vulgaris; settings: Preemergence; for Plant response rating, Sugarbeets: Rate 125 g/ha
Method in brief: (§1)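 Test chemicals in a non-phytotoxic solvent mixture with surfactant were sprayed preemergence onto planted seeds and postemergence onto plants 2 to 18 cm tall (1- to 4-leaf stage). After twelve to sixteen days in a greenhouse, injury was visually rated against untreated controls from 0 (no effect) to 10 (complete control).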

rape = assay: Test B pre/postemergence rape; type: in vivo, Brassica napus; settings: Preemergence; for Plant response rating, Rape: Rate 125 g/ha
Method in brief: as §1

purple nutsedge = assay: Test B pre/postemergence purple nutsedge; type: in vivo, Cyperus rotundus; settings: Preemergence; for Plant response rating, Nutsedge: Rate 125 g/ha
Method in brief: as §1

surinam grass = assay: Test B pre/postemergence surinam grass; type: in vivo, Brachiaria decumbens; settings: Preemergence; for Plant response rating, B. signalgrass: Rate 125 g/ha
Method in brief: as §1

bedstraw = assay: Test B pre/postemergence bedstraw; type: in vivo, Galium aparine; settings: Preemergence; for Plant response rating, Bedstraw: Rate 125 g/ha
Method in brief: as §1

crabgrass = assay: Test B pre/postemergence crabgrass; type: in vivo, Digitaria sanguinalis; settings: Preemergence; for Plant response rating, Crabgrass: Rate 125 g/ha
Method in brief: as §1

cocklebur = assay: Test B pre/postemergence cocklebur; type: in vivo, Xanthium strumarium; settings: Preemergence; for Plant response rating, Cocklebur: Rate 125 g/ha
Method in brief: as §1

soybean = assay: Test B pre/postemergence soybean; type: in vivo, Glycine max; settings: Preemergence; for Plant response rating, Soybean: Rate 125 g/ha
Method in brief: as §1

wheat = assay: Test B pre/postemergence wheat; type: in vivo, Triticum aestivum; settings: Preemergence; for Plant response rating, Wheat: Rate 125 g/ha
Method in brief: as §1

pigweed = assay: Test B pre/postemergence pigweed; type: in vivo, Amaranthus retroflexus; settings: Preemergence; for Plant response rating, Redroot pigweed: Rate 125 g/ha
Method in brief: as §1

wild oat = assay: Test B pre/postemergence wild oat; type: in vivo, Avena fatua; settings: Preemergence; for Plant response rating, Wild oats: Rate 125 g/ha
Method in brief: as §1

corn = assay: Test B pre/postemergence corn; type: in vivo, Zea mays; settings: Preemergence; for Plant response rating, Corn: Rate 125 g/ha
Method in brief: as §1

velvetleaf = assay: Test B pre/postemergence velvetleaf; type: in vivo, Abutilon theophrasti; settings: Preemergence; for Plant response rating, Velvetleaf: Rate 125 g/ha
Method in brief: as §1

giant foxtail = assay: Test B pre/postemergence giant foxtail; type: in vivo, Setaria faberii; settings: Preemergence; for Plant response rating, Giant foxtail: Rate 125 g/ha
Method in brief: as §1

morningglory = assay: Test B pre/postemergence morningglory; type: in vivo, Ipomoea hederacea; settings: Preemergence; for Plant response rating, Morningglory: Rate 125 g/ha
Method in brief: as §1

blackgrass = assay: Test B pre/postemergence blackgrass; type: in vivo, Alopecurus myosuroides; settings: Preemergence; for Plant response rating, Blackgrass: Rate 125 g/ha
Method in brief: as §1

[1] = Rate 62 g/ha, scale of 0 to 10 where 0 is no effect and 10 is complete control
[2] = scale of 0 to 10 where 0 is no effect and 10 is complete control
[3] = Rate 250 g/ha, scale 0 (no effect) to 10 (complete control)
[4] = Rate 500 g/ha, scale 0 to 10 (0 no effect, 10 complete control)
[5] = Rate 31 g/ha, visual rating, scale 0 to 10 (0 no effect, 10 complete control)

COC(CCl)n1c(=O)on(C(=O)N(c2ccc(Cl)cc2)C(C)C)c1=O (stereo not drawn) [Compound 725]
Sugarbeets plant response rating (sugar beet; [1]): 0
Plant response rating, Sugarbeets (sugar beet; [2]): 0
Sugarbeets plant response rating (sugar beet; [3]): 0
Sugarbeets plant response rating (sugar beet; [4]): 2
Rape plant response rating (rape; [1]): 0
Plant response rating, Rape (rape; [2]): 0
Rape plant response rating (rape; [3]): 0
Rape plant response rating (rape; [4]): 0
Nutsedge plant response rating (purple nutsedge; [1]): 0
Plant response rating, Nutsedge (purple nutsedge; [2]): 0
Nutsedge plant response rating (purple nutsedge; [4]): 0
B. signalgrass plant response rating (surinam grass; [1]): 0
Plant response rating, B. signalgrass (surinam grass; [2]): 3
B. signalgrass plant response rating (surinam grass; [3]): 4
B. signalgrass plant response rating (surinam grass; [4]): 4
Bedstraw plant response rating (bedstraw; [1]): 0
Plant response rating, Bedstraw (bedstraw; [2]): 0
Bedstraw plant response rating (bedstraw; [3]): 0
Bedstraw plant response rating (bedstraw; [4]): 0
Crabgrass plant response rating (crabgrass; [1]): 6
Plant response rating, Crabgrass (crabgrass; [2]): 6
Crabgrass plant response rating (crabgrass; [3]): 8
Crabgrass plant response rating (crabgrass; [4]): 8
Cocklebur plant response rating (cocklebur; [1]): 0
Plant response rating, Cocklebur (cocklebur; [2]): 0
Cocklebur plant response rating (cocklebur; [3]): 0
Cocklebur plant response rating (cocklebur; [4]): 0
Soybean plant response rating (soybean; [1]): 0
Plant response rating, Soybean (soybean; [2]): 0
Soybean plant response rating (soybean; [3]): 0
Soybean plant response rating (soybean; [4]): 0
Wheat plant response rating (wheat; [1]): 0
Plant response rating, Wheat (wheat; [2]): 0
Wheat plant response rating (wheat; [3]): 0
Wheat plant response rating (wheat; [4]): 0
Redroot pigweed plant response rating (pigweed; [1]): 0
Plant response rating, Redroot pigweed (pigweed; [2]): 0
Redroot pigweed plant response rating (pigweed; [3]): 0
Redroot pigweed plant response rating (pigweed; [4]): 3
Wild oats plant response rating (wild oat; [1]): 0
Plant response rating, Wild oats (wild oat; [2]): 2
Wild oats plant response rating (wild oat; [3]): 4
Wild oats plant response rating (wild oat; [4]): 6
Corn plant response rating (corn; [1]): 0
Plant response rating, Corn (corn; [2]): 0
Corn plant response rating (corn; [3]): 0
Corn plant response rating (corn; [4]): 0
Velvetleaf plant response rating (velvetleaf; [1]): 0
Plant response rating, Velvetleaf (velvetleaf; [2]): 0
Velvetleaf plant response rating (velvetleaf; [3]): 0
Velvetleaf plant response rating (velvetleaf; [4]): 0
Giant foxtail plant response rating (giant foxtail; [1]): 7
Plant response rating, Giant foxtail (giant foxtail; [2]): 8
Giant foxtail plant response rating (giant foxtail; [3]): 10
Giant foxtail plant response rating (giant foxtail; [4]): 10
Morningglory plant response rating (morningglory; [1]): 1
Plant response rating, Morningglory (morningglory; [2]): 1
Morningglory plant response rating (morningglory; [3]): 1
Morningglory plant response rating (morningglory; [4]): 3
Blackgrass plant response rating (blackgrass; [1]): 2
Plant response rating, Blackgrass (blackgrass; [2]): 4
Blackgrass plant response rating (blackgrass; [3]): 7
Blackgrass plant response rating (blackgrass; [4]): 7

CC(=O)NCCn1c(=O)on(C(=O)N(c2ccc(F)cc2)C(C)C)c1=O [Compound 727]
Sugarbeets plant response rating (sugar beet; [1]): 0
Plant response rating, Sugarbeets (sugar beet; [2]): 0
Sugarbeets plant response rating (sugar beet; [3]): 0
Rape plant response rating (rape; [1]): 0
Plant response rating, Rape (rape; [2]): 0
Rape plant response rating (rape; [3]): 1
Plant response rating, Nutsedge (purple nutsedge; [2]): 0
Nutsedge plant response rating (purple nutsedge; [3]): 0
B. signalgrass plant response rating (surinam grass; [5]): 0
B. signalgrass plant response rating (surinam grass; [1]): 0
Plant response rating, B. signalgrass (surinam grass; [2]): 6
B. signalgrass plant response rating (surinam grass; [3]): 7
Bedstraw plant response rating (bedstraw; [5]): 0
Bedstraw plant response rating (bedstraw; [1]): 0
Plant response rating, Bedstraw (bedstraw; [2]): 0
Bedstraw plant response rating (bedstraw; [3]): 0
Crabgrass plant response rating (crabgrass; [5]): 3
Crabgrass plant response rating (crabgrass; [1]): 3
Plant response rating, Crabgrass (crabgrass; [2]): 8
Crabgrass plant response rating (crabgrass; [3]): 9
Cocklebur plant response rating (cocklebur; [5]): 0
Cocklebur plant response rating (cocklebur; [1]): 0
Plant response rating, Cocklebur (cocklebur; [2]): 0
Cocklebur plant response rating (cocklebur; [3]): 0
Soybean plant response rating (soybean; [1]): 0
Plant response rating, Soybean (soybean; [2]): 0
Soybean plant response rating (soybean; [3]): 0
Wheat plant response rating (wheat; [1]): 0
Plant response rating, Wheat (wheat; [2]): 0
Wheat plant response rating (wheat; [3]): 0
Redroot pigweed plant response rating (pigweed; [1]): 0
Plant response rating, Redroot pigweed (pigweed; [2]): 5
Redroot pigweed plant response rating (pigweed; [3]): 5
Wild oats plant response rating (wild oat; [1]): 0
Plant response rating, Wild oats (wild oat; [2]): 3
Wild oats plant response rating (wild oat; [3]): 3
Corn plant response rating (corn; [5]): 0
Corn plant response rating (corn; [1]): 0
Plant response rating, Corn (corn; [2]): 0
Corn plant response rating (corn; [3]): 0
Velvetleaf plant response rating (velvetleaf; [1]): 0
Plant response rating, Velvetleaf (velvetleaf; [2]): 0
Velvetleaf plant response rating (velvetleaf; [3]): 0
Giant foxtail plant response rating (giant foxtail; [5]): 5
Giant foxtail plant response rating (giant foxtail; [1]): 7
Plant response rating, Giant foxtail (giant foxtail; [2]): 7
Giant foxtail plant response rating (giant foxtail; [3]): 10
Morningglory plant response rating (morningglory; [1]): 0
Plant response rating, Morningglory (morningglory; [2]): 0
Morningglory plant response rating (morningglory; [3]): 0
Blackgrass plant response rating (blackgrass; [5]): 0
Blackgrass plant response rating (blackgrass; [1]): 0
Plant response rating, Blackgrass (blackgrass; [2]): 7
Blackgrass plant response rating (blackgrass; [3]): 8
